# Measurements from ChEMBL document CHEMBL5625206, “Design, synthesis, and evaluation of novel pleuromutilin aryl acrylate derivatives as promising broad-spectrum antibiotics especially for combatting multi-drug resistant gram-negative bacteria” (Eur J Med Chem, 2023).
# Calls of active or inactive are those of the source. No cut-off for these calls is given here.
# Columns and labels:
# [1] = test system: Staphylococcus epidermidis; experiment: Antibacterial activity against Staphylococcus epidermidis ATCC 12228 assessed as bacterial growth inhibition incubated for 24 hrs by CLSI based broth microdilution method; type: functional
# Escherichia coli [2] = experiment: Antibacterial activity against Escherichia coli ATCC 25922 assessed as bacterial growth inhibition incubated for 24 hrs by CLSI based broth microdilution method; type: functional
# Escherichia coli [3] = experiment: Bactericidal activity against Escherichia coli ATCC 25922 at 4 to 8 times MIC incubated for 8 to 12 hrs by time kill assay relative to control; type: functional; details: time 8-12 hrs
# Staphylococcus aureus [4] = experiment: Bactericidal activity against methicillin-resistant Staphylococcus aureus ATCC 33591 incubated for 24 hrs by time kill assay; type: functional, organism-based
# Mycoplasmopsis synoviae = experiment: Anti-mycoplasma activity against Mycoplasmopsis synoviae MS-MVU1852-NCTC10124 assessed as bacterial growth inhibition incubated for 7 days; type: functional; details: MS-MVU1852-NCTC10124, 168 h, time 7 day
# Escherichia coli [5] = experiment: Inhibition of biofilm formation of Escherichia coli ATCC 25922 at MIC incubated for 24 hrs by crystal violet staining based analysis relative to control; type: functional
# Escherichia coli [6] = experiment: Inhibition of biofilm formation of Escherichia coli ATCC 25922 at 8 times MIC incubated for 24 hrs by crystal violet staining based analysis relative to control; type: functional
# Escherichia coli [7] = experiment: Depolarization of cell membrane in Escherichia coli ATCC 25922 by DiBAC4(3) probe based analysis; type: functional, organism-based
# Escherichia coli [8] = experiment: Induction of extracellular electrical conductivity in Escherichia coli ATCC 25922 at 2 times MIC incubated for 8 hrs relative to control; type: functional
# Escherichia coli [9] = experiment: Disruption of cell membrane integrity in Escherichia coli ATCC 25922 assessed as increase in red fluorescence at 1 to 4 times MIC incubated for 2 hrs by MycoLight green JJ98/PI staining based analysis; type: functional, organism-based
# Staphylococcus aureus [10] = experiment: Disruption of cell membrane integrity in methicillin-resistant Staphylococcus aureus ATCC 33591 assessed as wrinkled cell surface at MIC incubated for 4 hrs by FESEM analysis; type: functional, organism-based
# Escherichia coli [11] = experiment: Disruption of cell membrane integrity in Escherichia coli ATCC 25922 at 4 times MIC incubated for 4 hrs by FESEM analysis; type: functional, organism-based
# [12] = Toxicity in neutropenic Kunming mouse model infected with methicillin-resistant Staphylococcus aureus ATCC 33591 assessed as survival rate at 10 mg/kg, ip measured after 7 days relative to control; type: organism-based; details: in vivo, 168 h, time 7 day
# [13] = Toxicity in neutropenic Kunming mouse model infected with methicillin-resistant Staphylococcus aureus ATCC 33591 assessed as survival rate at 20 mg/kg, ip measured after 7 days relative to control; type: organism-based; details: in vivo, 168 h, time 7 day
# Staphylococcus aureus [14] = experiment: Antibacterial activity against methicillin-resistant Staphylococcus aureus ATCC 33591 infected in neutropenic Kunming mouse model assessed as reduction in infection-induced kidney damage at 20 mg/kg, ip measured after 7 days; type: functional, organism-based; details: time 7.0 day
# Staphylococcus aureus [15] = experiment: Antibacterial activity against methicillin-resistant Staphylococcus aureus ATCC 33591 infected in neutropenic Kunming mouse model assessed as restoration of infection- induced change in cell morphology in lung at 20 mg/kg, ip measured after 7 days; type: functional, organism-based; details: time 7.0 day
# Staphylococcus aureus [16] = experiment: Antibacterial activity against methicillin-resistant Staphylococcus aureus ATCC 33591 infected in neutropenic Kunming mouse model assessed as restoration of infection- induced change in cell morphology in kidney at 20 mg/kg, ip measured after 7 days; type: functional, organism-based; details: time 7.0 day
# [17] = Volume of distribution at steady state in fasted Sprague-Dawley rat at 1 mg/kg, iv by LC-MS/MS analysis; type: ADME, organism-based; details: in vivo, read-out: Vdss
# [18] = Toxicity in fasted Sprague-Dawley rat assessed as mortality rate at 224 mg/kg, IG measured for 14 days; type: organism-based; details: in vivo, po, time 14 day
# [19] = Toxicity in fasted male Sprague-Dawley rat assessed as body weight at 331 mg/kg, IG measured on same day (reference value: 212.7 +/- 13.2 g); type: organism-based; details: in vivo, po
# [20] = Toxicity in fasted male Sprague-Dawley rat assessed as body weight at 100 mg/kg, IG measured after 7 days (reference value: 260.5 +/- 12.7 g); type: organism-based; details: in vivo, po, 168 h, time 7 day
# [21] = Toxicity in fasted female Sprague-Dawley rat assessed as body weight at 224 mg/kg, IG measured after 7 days (reference value: 188.2 +/- 9.2 g); type: organism-based; details: in vivo, po, 168 h, time 7 day
# [22] = Toxicity in fasted male Sprague-Dawley rat assessed as animal growth rate at 148 mg/kg, IG measured for 14 days (reference value: 46.53 +/- 3.19 g); type: organism-based; details: in vivo, po, 336 h, time 14 day
# [23] = Toxicity in fasted female Sprague-Dawley rat assessed as animal growth rate at 224 mg/kg, IG measured for 14 days (reference value: 29.85 +/- 4.97 g); type: organism-based; details: in vivo, po, 336 h, time 14 day
# [24] = Toxicity in fasted female Sprague-Dawley rat assessed as relative liver weight ratio at 148 mg/kg, IG measured for 14 days (reference value: 3.199 +/- 0.062); type: organism-based; details: in vivo, po, 336 h, time 14 day
# [25] = Toxicity in fasted male Sprague-Dawley rat assessed as relative liver weight ratio at 224 mg/kg, IG measured for 14 days (reference value: 3.616 +/- 0.286); type: organism-based; details: in vivo, po, 336 h, time 14 day
# [26] = Toxicity in fasted female Sprague-Dawley rat assessed as relative liver weight ratio at 224 mg/kg, IG measured for 14 days (reference value: 3.199 +/- 0.062); type: organism-based; details: in vivo, po, 336 h, time 14 day
# [27] = Toxicity in fasted female Sprague-Dawley rat assessed as relative kidney weight ratio at 331 mg/kg, IG measured for 14 days (reference value: 0.802 +/- 0.031); type: organism-based; details: in vivo, po, 336 h, time 14 day
# [28] = Toxicity in fasted male Sprague-Dawley rat assessed as relative heart weight ratio at 500 mg/kg, IG measured for 14 days (reference value: 0.396 +/- 0.043); type: organism-based; details: in vivo, po, 336 h, time 14 day
# [29] = Toxicity in fasted male Sprague-Dawley rat assessed as relative lung weight ratio at 100 mg/kg, IG measured for 14 days (reference value: 0.437 +/- 0.064); type: organism-based; details: in vivo, po, 336 h, time 14 day
# [30] = Toxicity in fasted female Sprague-Dawley rat assessed as relative lung weight ratio at 331 mg/kg, IG measured for 14 days (reference value: 0.534 +/- 0025); type: organism-based; details: in vivo, po, 336 h, time 14 day
# [31] = Toxicity in fasted female Sprague-Dawley rat assessed as relative ovary weight ratio at 100 mg/kg, IG measured for 14 days (reference value: 0.061 +/- 0.010); type: organism-based; details: in vivo, po, 336 h, time 14 day
# [32] = Toxicity in fasted male Sprague-Dawley rat assessed as relative testis weight ratio at 331 mg/kg, IG measured for 14 days (reference value: 0.993 +/- 0.052); type: organism-based; details: in vivo, po, 336 h, time 14 day
# [33] = Toxicity in fasted female Sprague-Dawley rat assessed as relative ovary weight ratio at 331 mg/kg, IG measured for 14 days (reference value: 0.061 +/- 0.010); type: organism-based; details: in vivo, po, 336 h, time 14 day
# [34] = Toxicity in fasted male Sprague-Dawley rat assessed as relative testis weight ratio at 500 mg/kg, IG measured for 14 days (reference value: 0.993 +/- 0.052); type: organism-based; details: in vivo, po, 336 h, time 14 day
# [35] = Toxicity in fasted female Sprague-Dawley rat assessed as relative ovary weight ratio at 500 mg/kg, IG measured for 14 days (reference value: 0.061 +/- 0.010); type: organism-based; details: in vivo, po, 336 h, time 14 day
compound,measurement,setting,value
C=C[C@]1(C)C[C@@H](OC(=O)COC(=O)/C=C/c2ccc(N(C)C)cc2)[C@]2(C)[C@H](C)CC[C@]3(CCC(=O)[C@H]32)[C@@H](C)[C@@H]1O,MIC,[1],1 µg/mL
same,MIC,Escherichia coli [2],16 µg/mL
same,Activity,Escherichia coli [3],100%
same,Activity,Staphylococcus aureus [4],Dose-Dependent Effect
same,MIC,Mycoplasmopsis synoviae,0.008 µg/mL
same,inhibition (INH),Escherichia coli [5],58.1%
same,inhibition (INH),Escherichia coli [6],97.56%
same,Activity,Escherichia coli [7],Dose-Dependent Effect
same,Activity,Escherichia coli [8],20.78%
same,Activity,Escherichia coli [9],Active
same,Activity,Staphylococcus aureus [10],Active
same,Activity,Escherichia coli [11],Active
same,Survival,[12],70%
same,Survival,[13],90%
same,Activity,Staphylococcus aureus [14],Active
same,Activity,Staphylococcus aureus [15],Active
same,Activity,Staphylococcus aureus [16],Active
same,Vd,[17],2 L/kg
same,mortality at 336 h,[18],0%
same,Activity,[19],217.4 g
same,Activity,[20],265.5 g
same,Activity,[21],191.2 g
same,Activity,[22],45.63%
same,Activity,[23],28.96%
same,Ratio,[24],3.193
same,Ratio,[25],3.699
same,Ratio,[26],3.197
same,Ratio,[27],0.832
same,Ratio,[28],0.376
same,Ratio,[29],0.44
same,Ratio,[30],0.528
same,Ratio,[31],0.071
same,Ratio,[32],1
same,Ratio,[33],0.067
same,Ratio,[34],0.956
same,Ratio,[35],0.071
